Measured values: PubChem BioAssay (NCI)
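Results reflect a 48-hour exposure of cells in 96-well plates to compound at five concentrations. At the GI50, growth is halved. Definition used: TGI = concentration required for complete inhibition of growth.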

Legend:
Assay in all cases: inhibition of tumour cell growth, NCI panel, 48 h
786-0 renal = test system: 786-0 renal
A498 renal = test system: A498 renal
A549 NSCLC = test system: A549 NSCLC
ACHN renal = test system: ACHN renal
BT-549 breast = test system: BT-549 breast
CCRF-CEM leukemia = test system: CCRF-CEM leukemia
COLO 205 colon = test system: COLO 205 colon
DU-145 prostate = test system: DU-145 prostate
EKVX NSCLC = test system: EKVX NSCLC
HCC-2998 colon = test system: HCC-2998 colon
HCT-116 colon = test system: HCT-116 colon
HCT-15 colon = test system: HCT-15 colon
HL-60(TB) leukemia = test system: HL-60(TB) leukemia
HOP-62 NSCLC = test system: HOP-62 NSCLC
HOP-92 NSCLC = test system: HOP-92 NSCLC
HS 578T breast = test system: HS 578T breast
HT29 colon = test system: HT29 colon
IGROV1 ovarian = test system: IGROV1 ovarian
K-562 leukemia = test system: K-562 leukemia
KM12 colon = test system: KM12 colon
LOX IMVI melanoma = test system: LOX IMVI melanoma
M14 melanoma = test system: M14 melanoma
MALME-3M melanoma = test system: MALME-3M melanoma
MCF7 breast = test system: MCF7 breast
MDA-MB-231 breast = test system: MDA-MB-231 breast
MDA-MB-435 = test system: MDA-MB-435
MOLT-4 leukemia = test system: MOLT-4 leukemia
NCI-H226 lung = test system: NCI-H226 lung
NCI-H23 lung = test system: NCI-H23 lung
NCI-H460 lung = test system: NCI-H460 lung
NCI-H522 lung = test system: NCI-H522 lung
NCI/ADR-RES ovarian = test system: NCI/ADR-RES ovarian
OVCAR-3 ovarian = test system: OVCAR-3 ovarian
OVCAR-4 ovarian = test system: OVCAR-4 ovarian
OVCAR-5 ovarian = test system: OVCAR-5 ovarian
OVCAR-8 ovarian = test system: OVCAR-8 ovarian
PC-3 prostate = test system: PC-3 prostate
RPMI-8226 leukemia = test system: RPMI-8226 leukemia
RXF 393 renal = test system: RXF 393 renal
SF-268 CNS = test system: SF-268 CNS
SF-295 CNS = test system: SF-295 CNS
SF-539 CNS = test system: SF-539 CNS
SK-MEL-2 melanoma = test system: SK-MEL-2 melanoma
SK-MEL-28 melanoma = test system: SK-MEL-28 melanoma
SK-MEL-5 melanoma = test system: SK-MEL-5 melanoma
SK-OV-3 ovarian = test system: SK-OV-3 ovarian
SN12C renal = test system: SN12C renal
SNB-19 CNS = test system: SNB-19 CNS
SNB-75 CNS = test system: SNB-75 CNS
SR leukemia = test system: SR leukemia
SW-620 colon = test system: SW-620 colon
T-47D breast = test system: T-47D breast
TK-10 renal = test system: TK-10 renal
U251 CNS = test system: U251 CNS
UACC-257 melanoma = test system: UACC-257 melanoma
UACC-62 melanoma = test system: UACC-62 melanoma
UO-31 renal = test system: UO-31 renal

Q: Which results are given for `C=CCCCC(=O)CCC(=O)OCC1O[C@@H](O[C@@H]2C(O)[C@@H](OC(C)=O)C(C)O[C@H]2O[C@H](CC=C)CCCCC)C(O)[C@@H](OC(=O)/C(C)=C/C)[C@@H]1OC(=O)/C=C/c1ccccc1` (some centres not stated)?
A: GI50 (786-0 renal): 316 nM; TGI (786-0 renal): > 50 µM; GI50 (A498 renal): 612 nM; TGI (A498 renal): > 50 µM; GI50 (A549 NSCLC): 34.5 nM; TGI (A549 NSCLC): > 50 µM; GI50 (ACHN renal): 151 nM; TGI (ACHN renal): > 50 µM; GI50 (BT-549 breast): 345 nM; TGI (BT-549 breast): > 50 µM; GI50 (CCRF-CEM leukemia): 551 nM; TGI (CCRF-CEM leukemia): > 50 µM; GI50 (COLO 205 colon): 88 nM; TGI (COLO 205 colon): 1550 nM; GI50 (DU-145 prostate): 292 nM; TGI (DU-145 prostate): > 50 µM; GI50 (EKVX NSCLC): 428 nM; TGI (EKVX NSCLC): > 50 µM; GI50 (HCC-2998 colon): 1080 nM; TGI (HCC-2998 colon): > 50 µM; GI50 (HCT-116 colon): 26.2 nM; TGI (HCT-116 colon): > 50 µM; GI50 (HCT-15 colon): 263 nM; TGI (HCT-15 colon): > 50 µM; GI50 (HL-60(TB) leukemia): 673 nM; TGI (HL-60(TB) leukemia): 3.34 µM; GI50 (HOP-62 NSCLC): 235 nM; TGI (HOP-62 NSCLC): > 50 µM; GI50 (HOP-92 NSCLC): 38.4 nM; GI50 (HS 578T breast): 131 nM; TGI (HS 578T breast): > 50 µM; GI50 (HT29 colon): 25.1 nM; TGI (HT29 colon): 3.06 µM; GI50 (IGROV1 ovarian): 280 nM; TGI (IGROV1 ovarian): > 50 µM; GI50 (K-562 leukemia): 267 nM; TGI (K-562 leukemia): > 50 µM; GI50 (KM12 colon): 142 nM; TGI (KM12 colon): > 50 µM; GI50 (LOX IMVI melanoma): 27.5 nM; TGI (LOX IMVI melanoma): 127 nM; GI50 (M14 melanoma): 63.3 nM; GI50 (MALME-3M melanoma): 871 nM; TGI (MALME-3M melanoma): > 50 µM; GI50 (MCF7 breast): 31.6 nM; TGI (MCF7 breast): > 50 µM; GI50 (MDA-MB-231 breast): 8.66 nM; TGI (MDA-MB-231 breast): 30.9 nM; GI50 (MDA-MB-435): 21.6 nM; TGI (MDA-MB-435): > 50 µM; GI50 (MOLT-4 leukemia): 2090 nM; TGI (MOLT-4 leukemia): > 50 µM; GI50 (NCI-H226 lung): 564 nM; TGI (NCI-H226 lung): > 50 µM; GI50 (NCI-H23 lung): 995 nM; TGI (NCI-H23 lung): > 50 µM; GI50 (NCI-H460 lung): 65.6 nM; TGI (NCI-H460 lung): > 50 µM; GI50 (NCI-H522 lung): 248 nM; TGI (NCI-H522 lung): > 50 µM; GI50 (NCI/ADR-RES ovarian): 1920 nM; TGI (NCI/ADR-RES ovarian): > 50 µM; GI50 (OVCAR-3 ovarian): 290 nM; TGI (OVCAR-3 ovarian): > 50 µM; GI50 (OVCAR-4 ovarian): 2290 nM; TGI (OVCAR-4 ovarian): > 50 µM; GI50 (OVCAR-5 ovarian): 1440 nM; TGI (OVCAR-5 ovarian): > 50 µM; GI50 (OVCAR-8 ovarian): 173 nM; TGI (OVCAR-8 ovarian): > 50 µM; GI50 (PC-3 prostate): 198 nM; TGI (PC-3 prostate): > 50 µM; GI50 (RPMI-8226 leukemia): 180 nM; TGI (RPMI-8226 leukemia): 3.26 µM; GI50 (RXF 393 renal): 76.6 nM; TGI (RXF 393 renal): > 50 µM; GI50 (SF-268 CNS): 505 nM; TGI (SF-268 CNS): > 50 µM; GI50 (SF-295 CNS): 14.4 nM; TGI (SF-295 CNS): 5.51 µM; GI50 (SF-539 CNS): 54.6 nM; TGI (SF-539 CNS): 12.3 µM; GI50 (SK-MEL-2 melanoma): 609 nM; TGI (SK-MEL-2 melanoma): > 14.7 µM; GI50 (SK-MEL-28 melanoma): 340 nM; TGI (SK-MEL-28 melanoma): > 50 µM; GI50 (SK-MEL-5 melanoma): 35.2 nM; TGI (SK-MEL-5 melanoma): 517 nM; GI50 (SK-OV-3 ovarian): 959 nM; TGI (SK-OV-3 ovarian): > 50 µM; GI50 (SN12C renal): 88.1 nM; TGI (SN12C renal): 2110 nM; GI50 (SNB-19 CNS): 518 nM; TGI (SNB-19 CNS): > 50 µM; GI50 (SNB-75 CNS): 13.3 nM; TGI (SNB-75 CNS): > 28 µM; GI50 (SR leukemia): 142 nM; TGI (SR leukemia): 1830 nM; GI50 (SW-620 colon): 122 nM; TGI (SW-620 colon): > 50 µM; GI50 (T-47D breast): 27.3 nM; TGI (T-47D breast): 1210 nM; GI50 (TK-10 renal): 106 nM; TGI (TK-10 renal): > 50 µM; GI50 (U251 CNS): 29.7 nM; TGI (U251 CNS): > 50 µM; GI50 (UACC-257 melanoma): 79.1 nM; TGI (UACC-257 melanoma): 8.11 µM; GI50 (UACC-62 melanoma): 190 nM; TGI (UACC-62 melanoma): 5.62 µM; GI50 (UO-31 renal): 33 nM; TGI (UO-31 renal): > 50 µM
